The source of these data is paper PMC9953703, “Bacterial Quorum-Sensing Peptides as Immune Modulators Present in Systemic Circulation” (Biomolecules, 2023).

Residues, ends and D or L forms follow the SMILES beside them.

Series [1] is described as follows: in vitro. The settings on record: human plasma (500 µL) in Krebs-Henseleit buffer pH 7.4, 100 µg peptide, 37 °C shaking, 0, 30 and 120 min, UPLC-PDA, first-order kinetics; for half-life: human, plasma, pH 7.4, Plasma Half-Life. The method, then:
In vitro chemical and metabolic stability of Q007, Q010, Q017 and Q212 was determined in cell medium and human plasma, respectively, using previously described procedures. In brief, 100 µg of peptide was incubated in Krebs–Henseleit buffer pH 7.4 with cell medium/plasma (500 µL) at 37 °C while shaking. At predetermined time intervals (i.e., 0, 6 and 24 h for cell medium; 0, 30 and 120 min for plasma), aliquots were immediately transferred into microtubes containing 1:1 volume of 1% (v/v) trifluoroacetic acid solution in water. The enzyme reaction was further stopped by heating the solution at 95 °C for 5 min. Next, the samples were centrifuged to precipitate the denatured proteins and the supernatant analysed using UPLC-PDA (Waters, Milford, MA, USA). Appropriate placebo solutions were similarly prepared. Assuming first-order kinetics, the rate constant k was obtained from ln(Pt/Pt0) = −kt, from which the half-life was determined as T1/2 = ln(2)/k.

The test system of another series is human red blood cells. Conditions: human RBC, 1 μM QSP, 1 h, 37 °C. The method, then: In vitro haemolysis of Q007, Q010, Q017 and Q212 was determined using previously described procedures. Briefly, freshly obtained human blood was centrifuged and the precipitate washed using freshly prepared 150 mM NaCl solution. After the final centrifugation step, the precipitate was resuspended into 100 mM sodium phosphate buffer pH 7.4. A 1 to 10 RBC solution was incubated for 1 h at 37 °C with QSP at a concentration of 1 μM. The absorbance of the supernatant was measured at 405 nm and corrected for the blank absorbance. The percent haemolysis was then calculated using the following equation: [(Asample − Ablank)/(Apositive control − Ablank)] × 100, with 1% (v/v) Triton X-100 being the positive control.

A short description of series [2]: in vitro. Conditions: human, Caco-2.
Experimental: Caco-2 permeability tests were performed as described by Wynendaele et al. [7], based on the protocol of Hubatsch et al. [14]. Briefly, Caco-2 cells were seeded on 12-well polycarbonate membrane filters (0.4 μm pore size, Corning, Teltow, Germany) and left for differentiation during 21–29 days. […] Samples were quantitatively analysed using UPLC-MS/MS. Four independent biological replicates were used (different days and well-plates), with each between 3 and 6 technical replicates (i.e., different wells on one plate/in one day).

On to `CC[C@H](C)[C@H](NC(=O)[C@H](CC(C)C)NC(=O)[C@H](C)N)C(=O)N[C@@H](CC(C)C)C(=O)N[C@H](C(=O)N[C@@H](CC(C)C)C(=O)N[C@H](C(=O)N[C@@H](CO)C(=O)O)C(C)C)[C@@H](C)O` [Q017, iPD1] (H-ALILTLVS-OH), for which the half-life in “in vitro [1]” was 2.5 h.

Consider `CC(C)C[C@H](NC(=O)[C@H](CC(=O)O)NC(=O)[C@H](C)N)C(=O)N1CCC[C@H]1C(=O)N[C@@H](Cc1ccccc1)C(=O)N[C@@H](CCC(=O)O)C(=O)N[C@@H](Cc1ccccc1)C(=O)O` [Q010, PapR7I] (H-ADLPFEF-OH), for which, in the series on human red blood cells, the “haemolysis-inducing effect” value was “lack of haemolysis-inducing effects”. In “in vitro [2]”, this molecule came in with a Papp A→B at 30 min of 0.0129 ×10⁻⁶ cm/s. In “in vitro [1]”, the “Plasma Half-Life” value stood at 9.2 h and the half-life is 9 h.

As for `C[C@@H](O)[C@H](NC(=O)[C@H](Cc1c[nH]c2ccccc12)NC(=O)[C@@H]1CCCN1C(=O)[C@H](CO)NC(=O)[C@@H](N)Cc1ccc(O)cc1)C(=O)N[C@@H](CC(N)=O)C(=O)N[C@@H](Cc1ccccc1)C(N)=O` [Q007, RNAIII Inhibiting Peptide (RIP)] (H-YSPWTNF-NH2), the “haemolysis-inducing effect” value with human red blood cells is listed as “did not induce haemolysis”. Further, in “in vitro [1]”, the “Plasma Half-Life” value amounted to 2.2 h and the half-life is 2 h.

Take `CC(C)[C@H](N)C(=O)N1CCC[C@H]1C(=O)N[C@@H](Cc1ccccc1)C(=O)N[C@@H](CCC(=O)O)C(=O)N[C@@H](Cc1ccccc1)C(=O)O` [Q212, PapR5III] (H-VPFEF-OH): the half-life in the series “in vitro [1]” is 0.2 h.
